Data from ChEMBL document CHEMBL2311445, “Discovery of novel inhibitors of LEDGF/p75-IN protein-protein interactions” (Bioorg Med Chem, 2013).
The source made the active and inactive calls. The calls are words filed in the database; no cut-off is given here.

Columns and labels:
HCT-116 = assay: Cytotoxicity against human HCT116 p53 +/+ and -/- cells after 72 hrs by MTT assay; type: cell-based; details: HCT-116, 72 h
[1] = target: T1, Human immunodeficiency virus type 1 integrase (Human immunodeficiency virus 1, UniProt Q7ZJM1); assay: Inhibition of wild type HIV1 integrase 3'-processing activity using 5'-end 32P-labeled linear oligonucleotide as substrate preincubated for 30 mins
[2] = Inhibition of human Flag-tagged LEDGF interaction to His6-tagged HIV1 integrase expressed in Escherichia coli BL21 (DE3) preincubated for 20 mins measured after 1 hr by AlphaScreen proximity luminescent assay
[3] = target: T1, Human immunodeficiency virus type 1 integrase; assay: Inhibition of wild type HIV1 integrase strand transfer activity using 5'-end 32P-labeled linear oligonucleotide as substrate preincubated for 30 mins
[4] = test system: Human immunodeficiency virus 1; assay: Antiviral activity against HIV1 3B infected in human MT4 cells assessed as inhibition of virus-induced cytopathic effect by MTT assay; type: functional, organism-based; details: Human immunodeficiency virus 1, 3B
[5] = Inhibition of human Flag-tagged LEDGF interaction to His6-tagged HIV1 integrase expressed in Escherichia coli BL21 (DE3) at 1000 uM preincubated for 20 mins measured after 1 hr by AlphaScreen proximity luminescent assay

T1 sequence (Q7ZJM1 whole entry): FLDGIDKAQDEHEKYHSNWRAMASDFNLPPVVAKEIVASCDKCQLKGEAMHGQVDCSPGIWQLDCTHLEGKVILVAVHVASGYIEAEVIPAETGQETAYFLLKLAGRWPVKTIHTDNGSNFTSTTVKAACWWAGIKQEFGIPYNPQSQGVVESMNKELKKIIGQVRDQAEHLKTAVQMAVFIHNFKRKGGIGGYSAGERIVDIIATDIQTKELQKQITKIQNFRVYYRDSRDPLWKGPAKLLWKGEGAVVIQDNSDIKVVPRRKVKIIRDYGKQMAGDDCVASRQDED

SMILES	EC50 (HCT-116)	IC50 [1]	IC50 [2]	IC50 [3]	IC50 [4]	inhibition [5]
Cc1ccc(N/N=C2\Sc3ccccc3C2=O)cc1	10 µM	> 100 µM	6 µM	> 100 µM	> 100 µM	–
Cc1occc1C(=O)NN/C=C1/C(=O)N(c2ccccc2Cl)C(=O)c2ccccc21	6.5 µM	90 µM	8 µM	75 µM	–	–
O=[N+]([O-])c1ccccc1/C=N/N1CCN(Cc2ccccc2)CC1	< 10 µM	–	24 µM	–	–	–
C/C(=N\Nc1ccc(S(=O)(=O)Nc2ccccc2)cc1[N+](=O)[O-])c1cc(O)ccc1O	–	> 100 µM	13 µM	> 100 µM	> 28 µM	–
Cc1nnc(NNC(=O)c2ccccc2)c2c1[nH]c1ccccc12	–	–	> 50 µM	–	–	–
CC/N=c1/scc(-c2cc(OC)ccc2OC)n1/N=C(\C)c1ccco1	> 10 µM	> 100 µM	8 µM	> 100 µM	> 60 µM	–
O=C(COc1ccc(Cl)cc1Cl)N/N=C/c1cc(Br)ccc1O	> 10 µM	> 100 µM	50 µM	> 100 µM	–	–
CCN(CC)c1ccc(/C=C2\CCC(/C=N/N3CCN(c4ccc(C)cc4)CC3)=C2N2CCOCC2)cc1	3.3 µM	–	46 µM	–	–	–
C=CC/N=c1/scc(-c2ccccc2Br)n1/N=C/c1ccccn1	–	> 100 µM	23 µM	> 100 µM	> 1 µM	–
NNC(=O)c1ccncc1	–	–	–	–	–	inactive
COc1ccc(OC)c(/C=N/NC(=O)c2n[nH]c3c2CCC3)c1	> 10 µM	> 100 µM	> 50 µM	> 100 µM	> 40 µM	–
O=C(N/N=C/c1c(O)ccc2ccccc12)c1ccncc1	–	> 100 µM	6 µM	> 100 µM	–	–
O=C(N/N=C/c1ccc(Cl)cc1Cl)c1n[nH]c2c1CCC2	< 1 µM	–	> 50 µM	–	–	–
O=C(N/N=C/c1cccnc1)C1=NNC2CCCCC12 (stereo unspecified)	5 µM	–	> 50 µM	–	> 20 µM	–
CC(=O)c1ccc(/N=N/c2ccc(C[P+](c3ccccc3)(c3ccccc3)c3ccccc3)cc2)cc1	0.5 µM	> 100 µM	12 µM	> 100 µM	–	–
NNC(=O)c1cc(-c2ccc(Cl)cc2)n[nH]1	10 µM	–	> 50 µM	–	–	–
O=C(N/N=C/c1cc(Br)ccc1O)c1cccnc1	–	> 100 µM	4 µM	> 100 µM	> 3 µM	–
O=C1C(O)=Cc2ccccc2/C1=N\Nc1ccc(Cl)cc1	–	> 100 µM	3 µM	100 µM	> 40 µM	–
O=C(N/N=C/c1ccc(Cl)cc1Cl)c1cnccn1	> 10 µM	> 100 µM	> 50 µM	> 100 µM	–	–
COc1cc(/C=N/Nc2ccc(S(=O)(=O)Nc3ccccc3C(=O)O)cc2[N+](=O)[O-])ccc1O	–	> 100 µM	25 µM	> 100 µM	> 10 µM	–

SMILES	EC50 (HCT-116)	IC50 [1]	IC50 [2]	IC50 [3]	IC50 [4]	inhibition [5]
CC/N=c1/scc(-c2ccc(Br)cc2)n1/N=C/c1ccc(O)c(O)c1O	> 10 µM	–	< 25 µM	–	> 35 µM	–
C/C(=N\N1CCN(Cc2ccccc2Cl)CC1)c1ccc([N+](=O)[O-])cc1	> 10 µM	> 100 µM	19 µM	> 100 µM	> 100 µM	–
COc1ccccc1N1CCN(/N=C/c2ccc(Cl)c([N+](=O)[O-])c2)CC1	> 10 µM	> 100 µM	21 µM	> 100 µM	> 100 µM	–
Cc1nc2ccccc2c(=O)n1/N=C/c1ccccc1O	10 µM	–	> 50 µM	–	–	–
c1ccc(/N=N/C(=N/Nc2ccccc2)c2ccccc2)cc1	> 10 µM	> 100 µM	20 µM	> 100 µM	> 5 µM	–
O=C(CP(=O)(c1ccccc1)c1ccccc1)N/N=C/c1cc(Br)cc(Br)c1O	3.3 µM	100 µM	50 µM	100 µM	–	–
CCN(CC)c1ccc(/C=C2\CCC(/C=N/N=C/c3cccnc3)=C2N2CCOCC2)cc1	> 10 µM	> 100 µM	3 µM	> 100 µM	> 20 µM	–
CCNc1nc(NCC)nc(C(=O)Nc2ccccc2)n1	–	–	21 µM	–	–	–
Oc1ccc(/C=N/N2CCN(c3ccccc3)CC2)cc1O	> 10 µM	69 µM	16 µM	31 µM	–	–
CC(Oc1ccccc1)C(=O)N/N=C/c1ccccc1O (stereo unspecified)	6.5 µM	–	50 µM	–	–	–
O=C(N/N=C/c1cc(Br)ccc1O)C1=NNC2CCCCC12 (stereo unspecified)	5 µM	29 µM	4 µM	15 µM	–	–
CC(C)c1ccc(/C=N/N2CCN(Cc3ccccc3)CC2)cc1	> 10 µM	–	50 µM	–	–	–
CCN(CC)c1ccc(/C=C2\CCC(/C=N/N=C/c3c(C)[nH]c4ccccc34)=C2N2CCOCC2)cc1	> 10 µM	–	40 µM	–	–	–
COc1c(Cl)cc(Cl)cc1/C=N/NC(=O)c1ccncc1	–	> 100 µM	> 50 µM	> 100 µM	–	–
COc1ccccc1NS(=O)(=O)c1ccc(N/N=C(\C)c2ccccc2Br)c([N+](=O)[O-])c1	> 10 µM	> 100 µM	6 µM	> 100 µM	12 µM	–
COCCN1C(=O)/C(=C\NNC(=O)c2cc(Cl)ccc2O)C(=O)NC1=S	10 µM	90 µM	13 µM	80 µM	> 40 µM	–
CN(C)c1ccc(/N=N/c2ccc(Cl)cc2)cc1	> 10 µM	> 100 µM	2 µM	> 100 µM	> 100 µM	–
O=C(Nn1cnc2ccccc2c1=O)c1cnccn1	–	–	39 µM	–	–	–
COc1cc(Br)cc(/C=N/NC(=O)c2ccccn2)c1O	–	17 µM	1.3 µM	13 µM	> 22 µM	–
Cc1nnc(NN)c2c1[nH]c1ccccc12	–	> 100 µM	5 µM	> 100 µM	> 50 µM	–

SMILES	EC50 (HCT-116)	IC50 [1]	IC50 [2]	IC50 [3]	IC50 [4]	inhibition [5]
CCOc1cccc(/C=N/NC(=O)c2n[nH]c3c2CCC3)c1O	6 µM	> 100 µM	2 µM	> 100 µM	> 4 µM	–
CC/C(=N\NC(=O)c1ccc(F)cc1)c1cc(Cl)cc(Cl)c1O	2.5 µM	–	> 50 µM	–	–	–
O=C(N/N=C/c1c(O)ccc2ccccc12)c1cc[nH]n1	1.5 µM	> 100 µM	7 µM	> 100 µM	> 14 µM	–
Cc1cc(C)nc(N/N=C/c2cccc(O)c2)n1	4 µM	–	> 50 µM	–	–	–
CCNc1nc(NCC)nc(C(=O)NN)n1	–	< 100 µM	6 µM	< 100 µM	> 20 µM	–
FC(F)(F)c1ccccc1/C=N/N1CCN(Cc2ccccc2)CC1	> 10 µM	> 100 µM	35 µM	> 100 µM	–	–
Cc1nnc(Cl)c2c1[nH]c1ccccc12	–	–	> 50 µM	–	–	–
Oc1ccc(Br)cc1/C=N/Nc1cccc2cccnc12	–	> 100 µM	> 50 µM	> 100 µM	–	–
COC(=O)c1ccc(/N=N/c2ccc([P+](c3ccccc3)(c3ccccc3)c3ccccc3)cc2)cc1	0.4 µM	–	36 µM	–	–	–
O=C(N/N=C/c1ccc(O)cc1O)c1ccncc1	4 µM	> 100 µM	4 µM	> 100 µM	–	–
COc1ccc(O)c(/C=N/NC(=O)c2sc3ccccc3c2O)c1	8 µM	> 100 µM	38 µM	> 100 µM	–	–
Cc1[nH]n(-c2ccccc2)c(=O)c1/C=N/Nc1ccc([N+](=O)[O-])cc1	> 10 µM	–	6 µM	–	–	–
COc1ccc(CN2CCCN(c3ccc(S(=O)(=O)Nc4ccccc4)cc3[N+](=O)[O-])CC2)cc1	> 10 µM	–	34 µM	–	24 µM	–
O=C(N/N=C/c1c(O)ccc2ccccc12)c1n[nH]c2c1CCC2	< 1 µM	> 100 µM	4 µM	> 100 µM	> 17 µM	–
NNC(=O)Cn1cnc(-c2ccc(F)cc2)c1	–	–	> 50 µM	–	–	–
Cn1cccc1/C=N/N1CCN(Cc2ccccc2)CC1	> 10 µM	> 100 µM	32 µM	> 100 µM	–	–
Cc1sc2ncnc(N/N=C/c3c(O)ccc4ccccc34)c2c1C	< 1 µM	77 µM	6 µM	52 µM	–	–
C/C(=N\NC(=O)C1CCCCC1)c1ccccc1O	> 10 µM	–	93 µM	–	> 20 µM	–
COCC/N=c1/scc(-c2cccs2)n1/N=C/c1cc(Br)c(O)c(OC)c1	> 10 µM	> 100 µM	14 µM	> 100 µM	> 15 µM	–
O=C(N/N=C/c1ccccc1O)c1cnccn1	9 µM	> 100 µM	0.4 µM	> 100 µM	> 40 µM	–
